Reference: patent US20230265098A1, “ALKYNE QUINAZOLINE DERIVATIVES AS INHIBITORS OF ERBB2” (EnLiven Therapeutics, Inc., priority 2020, published 2023)

Tests used:
[1] = biological target: T1, phosphorylated ERBB2 (pERBB2) (Homo sapiens, UniProt P04626); test: Detection of phosphorylated ERBB2 (pERBB2) by ELISA in BT-474 cells; type: cell-based; conditions: four hours incubation with compound, OD 450 nm
T1 construct: endogenous in cells; host or cells: BT-474
Method in brief: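 BT-474 cells were treated for 4 h at 37 °C with four-fold compound dilutions from 10 μM to 0.01 nM final, then lysed. Phospho-ERBB2 in the lysates was measured by ELISA with TMB read-out at 450 nm. Relative activity was normalised between cell-free wells and 0.1% DMSO-treated cells.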

[2] = biological target: T2, Ba/F3 ERBB2-P780_Y781insGSP (Homo sapiens, UniProt P04626, DUP778-780, cells depend on it); test: Cell viability assay (CellTiter Glo); type: cell-based, mouse; conditions: 72 hours; 3000 cells per well, 96-well plates; read-out: Cell viability IC50, nM, Ba/F3 ERBB2-P780_Y781insGSP
T2 construct: Ba/F3 cell lines were engineered to express human ERBB2 or EGFR kinases, rendering the cells IL-3 independent
Procedure: (§1) Cells were treated with compounds, and cell viability was measured as a metric of kinase inhibition.
(§2) The Ba/F3 cell line is IL-3-dependent mouse cell line derived from the C3H mouse strain. Ba/F3 cell lines were engineered to express human ERBB2 or EGFR kinases, rendering the cells IL-3 independent. The lines were generated via retroviral transduction utilizing a Moloney murine leukemia virus (MMLV) promoter, and constructs are stably integrated into the cell genome.
(§3) Similarly, Ba/F3 cell lines engineered to express EGFR, ERBB2, or ERBB2 mutants were grown, harvested, counted and seeded at 3000 cells per well in 96-well plates for the data sets shown in Tables B3-B4, and seeded at 300 cells per well in 384-well plates for the data set shown in Table B5. A subset of wells contained media only (low control, “LC”).
(§4) Table B2 provides the growth media and number of cells seeded per well for the each cell line.
(§5) Compounds were dissolved in DMSO and serially diluted. Serially-diluted compound or a DMSO only control (high control, “HC”) was added to the plated cells in each well. […] The final proportion of DMSO never exceeded 0.1%.
Plates were placed in a 37° C., 5% CO2 incubator for 72 hours. Plates were then removed from the incubator and equilibrated for 15 minutes at room temperature. 40 IA of CellTiter Glo reagent (Promega) was added to measure the relative level of metabolically active cells by quantifying intracellular ATP concentrations. Plates were incubated for 30 minutes at room temperature, and luminescence was measured. […] Graphical curves were fitted using a nonlinear regression model with a sigmoidal dose response.

A431 cells = test: Cell viability assay (CellTiter Glo); type: cell-based; conditions: Homo sapiens, A-431; 72 hours; 1500 cells per well, 384-well; DMEM + 10% FBS
Procedure: as §1, §2, §3, §4, §5
(§6) Plates were placed in a 37° C., 5% CO2 incubator for 72 hours. Plates were then removed from the incubator and equilibrated for 15 minutes at room temperature. 40 IA of CellTiter Glo reagent (Promega) was added to measure the relative level of metabolically active cells by quantifying intracellular ATP concentrations. Plates were incubated for 30 minutes at room temperature, and luminescence was measured. Percent viability was normalized to a vehicle control only using the following formula: % viability=100×(LumSample−LumLC) (LumHC−LumLC). Graphical curves were fitted using a nonlinear regression model with a sigmoidal dose response.

MDA-MB-175VII cells = test: Cell viability assay (CellTiter Glo); type: cell-based; conditions: Homo sapiens, 72 hours, 2000 cells per well, 384-well, RPMI + 10% FBS
Procedure: as §1, §2, §3, §4, §5, §6

BT-474 cells = test: Cell viability assay (CellTiter Glo); type: cell-based; conditions: Homo sapiens, 72 hours, 2000 cells per well, 384-well, DMEM + 10% FBS
Procedure: as §1, §2, §3, §4, §5, §6

Ba/F3 ERBB2-G776VC = biological target: T3, Ba/F3 ERBB2-G776VC (Homo sapiens, UniProt P04626, DELINS776-776VC, cells depend on it); test: Cell viability assay (CellTiter Glo); type: cell-based, mouse; conditions: 72 hours; 3000 cells per well, 96-well plates; read-out: Cell viability IC50, nM, Ba/F3 ERBB2-G776VC
T3 construct: Ba/F3 cell lines were engineered to express human ERBB2 or EGFR kinases, rendering the cells IL-3 independent
T3 sequence (P04626 with tags, fused parts or gaps DELINS776-776VC): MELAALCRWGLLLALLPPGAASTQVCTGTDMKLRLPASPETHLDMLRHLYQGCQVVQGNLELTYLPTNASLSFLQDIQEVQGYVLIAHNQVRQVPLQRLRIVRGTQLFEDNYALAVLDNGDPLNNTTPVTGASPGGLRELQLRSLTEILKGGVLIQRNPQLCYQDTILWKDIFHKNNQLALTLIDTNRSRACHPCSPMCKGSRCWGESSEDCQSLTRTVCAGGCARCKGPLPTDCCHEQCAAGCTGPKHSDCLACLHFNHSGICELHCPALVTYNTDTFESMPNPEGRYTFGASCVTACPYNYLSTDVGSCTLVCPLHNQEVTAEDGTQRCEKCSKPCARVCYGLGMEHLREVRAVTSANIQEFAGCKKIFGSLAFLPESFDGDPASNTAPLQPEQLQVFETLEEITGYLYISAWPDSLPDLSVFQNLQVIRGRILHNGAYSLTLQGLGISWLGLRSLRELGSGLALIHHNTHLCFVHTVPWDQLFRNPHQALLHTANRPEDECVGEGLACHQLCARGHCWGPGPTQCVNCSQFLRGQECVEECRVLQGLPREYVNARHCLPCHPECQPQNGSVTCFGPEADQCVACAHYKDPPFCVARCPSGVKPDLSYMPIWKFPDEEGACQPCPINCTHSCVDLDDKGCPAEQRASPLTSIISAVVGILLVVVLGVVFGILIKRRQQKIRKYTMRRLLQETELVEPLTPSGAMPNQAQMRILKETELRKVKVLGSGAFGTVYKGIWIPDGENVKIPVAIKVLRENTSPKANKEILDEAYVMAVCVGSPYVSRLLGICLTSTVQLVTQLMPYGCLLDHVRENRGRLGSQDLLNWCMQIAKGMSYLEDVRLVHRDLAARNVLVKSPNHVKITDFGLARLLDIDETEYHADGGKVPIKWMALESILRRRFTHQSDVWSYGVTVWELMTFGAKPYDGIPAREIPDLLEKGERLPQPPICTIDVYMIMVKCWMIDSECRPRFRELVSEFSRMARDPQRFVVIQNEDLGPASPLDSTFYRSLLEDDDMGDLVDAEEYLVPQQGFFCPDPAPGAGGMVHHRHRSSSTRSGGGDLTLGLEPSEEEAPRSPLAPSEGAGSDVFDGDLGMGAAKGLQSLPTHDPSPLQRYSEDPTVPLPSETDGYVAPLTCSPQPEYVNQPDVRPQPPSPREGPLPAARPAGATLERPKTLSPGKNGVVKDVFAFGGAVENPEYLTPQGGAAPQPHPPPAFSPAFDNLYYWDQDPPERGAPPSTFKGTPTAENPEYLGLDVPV
Procedure: as §1, §2, §3, §4, §5, §6

[3] = biological target: T4, Ba/F3 ERBB2 A775_G776insYVMA (Homo sapiens, UniProt P04626, DUP772-775, cells depend on it); test: Cell viability assay (CellTiter Glo); type: cell-based, mouse; conditions: 72 hours; 3000 cells per well, 96-well plates (Tables B3-B4); read-out: Cell viability IC50, nM, Ba/F3 ERBB2 A775_G776insYVMA
T4 construct: Ba/F3 cell lines were engineered to express human ERBB2 or EGFR kinases, rendering the cells IL-3 independent
T4 sequence (P04626 with tags, fused parts or gaps DUP772-775): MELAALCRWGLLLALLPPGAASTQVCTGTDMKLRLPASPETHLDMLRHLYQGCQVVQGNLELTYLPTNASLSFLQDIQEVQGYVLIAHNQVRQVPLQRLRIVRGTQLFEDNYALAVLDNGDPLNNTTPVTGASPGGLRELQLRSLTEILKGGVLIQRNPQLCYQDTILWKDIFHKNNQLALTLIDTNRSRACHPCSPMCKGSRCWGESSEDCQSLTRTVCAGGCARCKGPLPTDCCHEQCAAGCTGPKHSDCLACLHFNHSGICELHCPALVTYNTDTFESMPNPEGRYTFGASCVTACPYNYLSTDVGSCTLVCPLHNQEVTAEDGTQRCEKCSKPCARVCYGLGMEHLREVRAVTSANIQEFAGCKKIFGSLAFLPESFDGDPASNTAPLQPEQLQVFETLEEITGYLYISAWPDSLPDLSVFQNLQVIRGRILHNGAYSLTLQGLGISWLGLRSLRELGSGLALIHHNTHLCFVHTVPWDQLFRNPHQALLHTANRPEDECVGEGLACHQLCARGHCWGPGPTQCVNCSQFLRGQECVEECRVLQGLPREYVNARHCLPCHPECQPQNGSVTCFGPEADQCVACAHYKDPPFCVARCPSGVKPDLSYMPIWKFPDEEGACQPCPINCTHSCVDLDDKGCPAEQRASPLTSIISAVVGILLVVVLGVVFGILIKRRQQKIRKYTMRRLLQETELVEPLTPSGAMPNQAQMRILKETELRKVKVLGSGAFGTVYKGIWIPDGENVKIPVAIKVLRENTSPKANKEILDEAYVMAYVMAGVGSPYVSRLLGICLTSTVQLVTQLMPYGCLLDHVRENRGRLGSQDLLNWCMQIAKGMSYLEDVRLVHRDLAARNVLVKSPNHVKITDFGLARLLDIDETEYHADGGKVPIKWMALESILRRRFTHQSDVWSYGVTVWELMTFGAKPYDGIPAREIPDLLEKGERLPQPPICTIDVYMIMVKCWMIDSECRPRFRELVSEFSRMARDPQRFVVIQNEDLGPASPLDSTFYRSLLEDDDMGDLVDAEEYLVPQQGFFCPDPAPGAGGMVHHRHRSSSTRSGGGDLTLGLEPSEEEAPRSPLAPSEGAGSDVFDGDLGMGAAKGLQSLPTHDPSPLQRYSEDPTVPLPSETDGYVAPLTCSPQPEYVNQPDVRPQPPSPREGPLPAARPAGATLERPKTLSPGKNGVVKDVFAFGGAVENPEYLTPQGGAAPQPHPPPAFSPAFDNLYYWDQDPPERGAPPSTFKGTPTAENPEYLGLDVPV
Procedure: as §1, §2, §3, §4, §5, §6

Ba/F3 ERBB2 wt = biological target: T5, Ba/F3 ERBB2 wt (Homo sapiens, UniProt P04626); test: Cell viability assay (CellTiter Glo); type: cell-based, mouse; conditions: 72 hours; 3000 cells per well, 96-well plates; read-out: Cell viability IC50, nM, Ba/F3 ERBB2 wt
T5 construct: Ba/F3 cell lines were engineered to express human ERBB2 or EGFR kinases, rendering the cells IL-3 independent
Procedure: as §1, §2, §3, §4, §5, §6

Ba/F3 ERBB2-L869R = biological target: T6, Ba/F3 ERBB2-L869R (Homo sapiens, UniProt P04626, L869R, cells depend on it); test: Cell viability assay (CellTiter Glo); type: cell-based, mouse; conditions: 72 hours; 3000 cells per well, 96-well plates; read-out: Cell viability IC50, nM, Ba/F3 ERBB2-L869R
T6 construct: Ba/F3 cell lines were engineered to express human ERBB2 or EGFR kinases, rendering the cells IL-3 independent
Procedure: as §1, §2, §3, §4, §5, §6

Ba/F3 ERBB2-L755S = biological target: T7, Ba/F3 ERBB2-L755S (Homo sapiens, UniProt P04626, L755S, cells depend on it); test: Cell viability assay (CellTiter Glo); type: cell-based, mouse; conditions: 72 hours; 3000 cells per well, 96-well plates; read-out: Cell viability IC50, nM, Ba/F3 ERBB2-L755S
T7 construct: Ba/F3 cell lines were engineered to express human ERBB2 or EGFR kinases, rendering the cells IL-3 independent
Procedure: as §1, §2, §3, §4, §5, §6

[4] = biological target: T8, Ba/F3 ERBB2-V777_G778insGC (Homo sapiens, UniProt P04626, INS778CG, cells depend on it); test: Cell viability assay (CellTiter Glo); type: cell-based, mouse; conditions: 72 hours; 3000 cells per well, 96-well plates; read-out: Cell viability IC50, nM, Ba/F3 ERBB2-V777_G778insGC
T8 construct: Ba/F3 cell lines were engineered to express human ERBB2 or EGFR kinases, rendering the cells IL-3 independent
T8 sequence (P04626 with tags, fused parts or gaps INS778CG): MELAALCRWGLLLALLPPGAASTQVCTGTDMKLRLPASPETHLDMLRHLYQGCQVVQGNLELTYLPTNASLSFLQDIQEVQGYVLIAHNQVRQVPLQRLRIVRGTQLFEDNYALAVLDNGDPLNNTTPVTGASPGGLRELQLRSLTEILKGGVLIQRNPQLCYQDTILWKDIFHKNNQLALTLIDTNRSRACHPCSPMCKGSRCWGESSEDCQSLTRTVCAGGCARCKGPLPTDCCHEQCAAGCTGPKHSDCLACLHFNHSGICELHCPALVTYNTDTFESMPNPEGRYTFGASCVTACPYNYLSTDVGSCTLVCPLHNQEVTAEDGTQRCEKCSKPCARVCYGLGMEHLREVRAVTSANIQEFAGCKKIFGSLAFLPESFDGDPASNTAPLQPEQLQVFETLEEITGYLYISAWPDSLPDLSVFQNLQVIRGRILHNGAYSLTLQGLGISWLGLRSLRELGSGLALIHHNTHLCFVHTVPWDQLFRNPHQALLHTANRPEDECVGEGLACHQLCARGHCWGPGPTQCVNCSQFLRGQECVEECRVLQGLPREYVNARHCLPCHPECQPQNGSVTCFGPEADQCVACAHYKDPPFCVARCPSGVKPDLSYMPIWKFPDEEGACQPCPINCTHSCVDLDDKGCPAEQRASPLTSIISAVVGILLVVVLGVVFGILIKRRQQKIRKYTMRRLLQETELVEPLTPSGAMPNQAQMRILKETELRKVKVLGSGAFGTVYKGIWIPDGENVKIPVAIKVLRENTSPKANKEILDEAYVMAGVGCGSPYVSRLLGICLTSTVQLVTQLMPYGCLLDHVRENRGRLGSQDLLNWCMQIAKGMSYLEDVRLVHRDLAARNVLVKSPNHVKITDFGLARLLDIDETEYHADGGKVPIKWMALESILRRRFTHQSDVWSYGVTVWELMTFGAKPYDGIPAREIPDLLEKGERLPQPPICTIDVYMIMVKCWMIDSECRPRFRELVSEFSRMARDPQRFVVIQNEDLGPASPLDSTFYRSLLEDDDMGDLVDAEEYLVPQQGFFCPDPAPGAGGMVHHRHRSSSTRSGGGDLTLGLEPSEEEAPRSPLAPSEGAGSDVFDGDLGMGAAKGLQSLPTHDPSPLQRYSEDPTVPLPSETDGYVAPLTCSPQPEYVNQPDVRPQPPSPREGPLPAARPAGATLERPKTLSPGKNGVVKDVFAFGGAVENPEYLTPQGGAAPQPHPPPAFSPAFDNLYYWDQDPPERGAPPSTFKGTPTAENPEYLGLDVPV
Procedure: as §1, §2, §3, §4, §5, §6

Ba/F3 ERBB2-T798M = biological target: T9, Ba/F3 ERBB2-T798M (Homo sapiens, UniProt P04626, T798M, cells depend on it); test: Cell viability assay (CellTiter Glo); type: cell-based, mouse; conditions: 72 hours; 3000 cells per well, 96-well plates; read-out: Cell viability IC50, nM, Ba/F3 ERBB2-T798M
T9 construct: Ba/F3 cell lines were engineered to express human ERBB2 or EGFR kinases, rendering the cells IL-3 independent
Procedure: as §1, §2, §3, §4, §5, §6

Ba/F3 ERBB2-V777L = biological target: T10, Ba/F3 ERBB2-V777L (Homo sapiens, UniProt P04626, V777L, cells depend on it); test: Cell viability assay (CellTiter Glo); type: cell-based, mouse; conditions: 72 hours; 3000 cells per well, 96-well plates; read-out: Cell viability IC50, nM, Ba/F3 ERBB2-V777L
T10 construct: Ba/F3 cell lines were engineered to express human ERBB2 or EGFR kinases, rendering the cells IL-3 independent
Procedure: as §1, §2, §3, §4, §5, §6

T1 sequence (P04626 23-1255): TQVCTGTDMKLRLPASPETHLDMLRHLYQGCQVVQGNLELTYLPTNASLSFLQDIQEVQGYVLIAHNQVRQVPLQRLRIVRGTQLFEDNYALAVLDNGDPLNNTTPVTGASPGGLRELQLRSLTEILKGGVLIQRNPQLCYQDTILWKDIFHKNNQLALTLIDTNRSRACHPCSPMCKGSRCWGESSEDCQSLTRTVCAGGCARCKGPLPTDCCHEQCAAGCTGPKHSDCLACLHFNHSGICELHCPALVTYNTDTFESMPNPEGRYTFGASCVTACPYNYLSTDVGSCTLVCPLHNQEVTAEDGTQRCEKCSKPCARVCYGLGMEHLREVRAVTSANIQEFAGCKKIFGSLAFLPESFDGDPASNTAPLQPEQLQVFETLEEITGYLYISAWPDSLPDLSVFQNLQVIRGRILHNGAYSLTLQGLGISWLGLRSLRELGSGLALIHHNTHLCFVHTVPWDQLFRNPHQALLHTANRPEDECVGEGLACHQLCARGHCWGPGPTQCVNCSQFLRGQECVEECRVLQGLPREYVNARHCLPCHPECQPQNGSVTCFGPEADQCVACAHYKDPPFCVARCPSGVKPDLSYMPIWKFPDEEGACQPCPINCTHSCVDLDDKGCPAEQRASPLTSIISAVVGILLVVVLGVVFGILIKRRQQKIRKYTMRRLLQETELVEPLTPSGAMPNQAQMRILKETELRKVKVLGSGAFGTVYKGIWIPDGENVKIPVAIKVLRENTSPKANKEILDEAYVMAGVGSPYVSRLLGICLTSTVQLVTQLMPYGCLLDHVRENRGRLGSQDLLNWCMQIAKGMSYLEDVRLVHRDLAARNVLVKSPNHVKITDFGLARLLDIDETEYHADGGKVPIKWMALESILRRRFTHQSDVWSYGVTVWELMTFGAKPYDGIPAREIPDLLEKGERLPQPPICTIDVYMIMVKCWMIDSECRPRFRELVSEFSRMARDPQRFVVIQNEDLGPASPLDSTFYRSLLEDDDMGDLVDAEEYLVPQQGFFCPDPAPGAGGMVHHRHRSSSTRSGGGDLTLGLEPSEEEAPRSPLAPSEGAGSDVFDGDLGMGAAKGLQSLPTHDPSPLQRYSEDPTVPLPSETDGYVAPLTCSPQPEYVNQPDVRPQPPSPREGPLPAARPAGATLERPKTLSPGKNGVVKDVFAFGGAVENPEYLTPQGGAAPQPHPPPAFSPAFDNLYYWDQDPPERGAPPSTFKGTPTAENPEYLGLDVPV

SMILES | IC50 [1] [nM] | IC50 (A431 cells) [nM] | IC50 (MDA-MB-175VII cells) [nM] | IC50 (BT-474 cells) [nM] | GI50 [2] [nM] | GI50 (Ba/F3 ERBB2-G776VC) [nM] | GI50 [3] [nM] | GI50 (Ba/F3 ERBB2 wt) [nM] | GI50 (Ba/F3 ERBB2-L869R) [nM] | GI50 (Ba/F3 ERBB2-L755S) [nM] | GI50 [4] [nM] | GI50 (Ba/F3 ERBB2-T798M) [nM] | GI50 (Ba/F3 ERBB2-V777L) [nM]
CC#CC(=O)Nc1ccc2ncnc(Nc3ccc(Oc4ccn(C)c(=O)c4)c(C)c3)c2c1 [Compound 3, N-[4-([3-methyl-4-[(1-methyl-2-oxopyridin-4-yl)oxy]phenyl]amino)quinazolin-6-yl]but-2-ynamide] | 152 | 4440 | 43.3 | 13.5 | 7.1 | 30 | 8.1 | 18 | – | – | – | – | –
CC#CC(=O)Nc1ccc2ncnc(Nc3ccc(Oc4cnc(C)cn4)cc3)c2c1 [Compound 10, N-[4-([4-[(5-methylpyrazin-2-yl)oxy]phenyl]amino)quinazolin-6-yl]but-2-ynamide] | 74.9 | 1080 | 232 | 35.5 | 16 | 81 | 49 | 13.1 | 15 | 81 | 9.3 | 220 | 7.3

Second part, led by results:

IC50 [1] [nM] | IC50 (A431 cells) [nM] | IC50 (MDA-MB-175VII cells) [nM] | IC50 (BT-474 cells) [nM] | SMILES | GI50 [2] [nM] | GI50 (Ba/F3 ERBB2-G776VC) [nM] | GI50 [3] [nM] | GI50 (Ba/F3 ERBB2 wt) [nM] | GI50 (Ba/F3 ERBB2-L869R) [nM] | GI50 (Ba/F3 ERBB2-L755S) [nM] | GI50 [4] [nM] | GI50 (Ba/F3 ERBB2-T798M) [nM] | GI50 (Ba/F3 ERBB2-V777L) [nM]
72.9 | > 10000 | 562 | 16.7 | CC#CC(=O)N(C)c1ccc2ncnc(Nc3ccc(Oc4ccn5ncnc5c4)cc3)c2c1 [Compound 8, N-methyl-N-[4-[(4-[[1,2,4]triazolo[1,5-a]pyridin-7-yloxy]phenyl)amino]quinazolin-6-yl]but-2-ynamide] | 20.4 | 117 | 276 | 31 | 52 | 159 | 34 | 1500 | 11
43.9 | 454 | 142 | 12.3 | CC#CC(=O)Nc1ccc2ncnc(Nc3ccc(Oc4ccc(C)nc4)cc3)c2c1 [Compound 9, N-[4-([4-[(6-methylpyridin-3-yl)oxy]phenyl]amino)quinazolin-6-yl]but-2-ynamide] | 5.5 | 21 | 20 | 5.7 | 15 | 35 | 2.4 | 239 | 4.1
14.3 | 3550 | 30.4 | 9.6 | CC#CC(=O)Nc1ccc2ncnc(Nc3ccc(Cc4ccn5ncnc5c4)cc3)c2c1 [Compound 14, N-[4-[(4-[[1,2,4]triazolo[1,5-a]pyridin-7-ylmethyl]phenyl)amino]quinazolin-6-yl]but-2-ynamide] | 3.8 | 13 | 36 | 5.1 | 9.5 | 25 | 4 | 482 | 1.5
